One data set can be described thus: physchem. Particulars: organic solvent or mixture, Solubility in Diethylene Glycol Monoethyl Ether.
For data set [1] the following is noted: cited from earlier work.
The nature of data set [2]: Solubility of pharmaceutical actives in Diethylene glycol monoethyl ether. Particulars: for solubility: Diethylene glycol monoethyl ether, organic solvent or mixture, Solubility in Diethylene Glycol Monoethyl Ether.
The nature of data set [3]: Viscosity of formulations prepared in Diethylene glycol monoethyl ether and of comparators. The settings on record: final solution/formulation; marketed comparators. The class given is physicochemical.
For data set [4] the following is noted: in vivo; cited from earlier work.

≈ marks a conversion by molar mass, not a printed value. Read-outs that look alike come from different tables or passages of the source.

One may read the solubility as how much of the substance goes into solution per volume. As for `CCOC(=O)O[C@]1(C(=O)OCCl)CC[C@H]2[C@@H]3CCC4=CC(=O)C=C[C@]4(C)[C@H]3[C@@H](O)C[C@@]21C` [Loteprednol], the solubility in the data set “physchem” turned out to be 25 mg/mL (≈ 53.5 mM). The solubility in water in data set [1] is 8 μg per 1t.

For `NC(=O)Cc1cccc(C(=O)c2ccccc2)c1N` [Nepafenac], the solubility in data set [2] was at most 2 mg/mL.

On to `C[C@]12CC[C@H]3[C@@H](CCC4=CC(=O)CC[C@@]43C)[C@@H]1CC[C@@H]2OC(=O)CCC1CCCC1` [Testosterone Cypionate, androst-4-en-3-one, 17-(3-cyclopentyl-1-oxopropoxy)-, (17β)-], for which the Viscosity entry in data set [3] is “less than 7 cps”. Also, in the data set “physchem”, the solubility was determined as 50 mg/mL (≈ 121 mM).

For the compound `CC(C)c1cccc(C(C)C)c1O` [Propofol, 2,6-diisopropylphenol], the Viscosity result in data set [3] is “less than 5 cps”.

In the case of `CCOC(=O)C1=C[C@]2(CC)CCCN3CCc4c(n1c1ccccc41)[C@@H]32` [Vinpocetine], the “Solubility in water (descriptive)” value in data set [1] is “Soluble in DMSO, DMF, ethanol, acetic acid, acetone, and chloroform. Insoluble in water”. Besides, the solubility in data set [2] came out at 12 mg/mL (≈ 34.2 mM).

Turning to `CCN[C@H]1CN(CCCOC)S(=O)(=O)c2sc(S(N)(=O)=O)cc21` [Brinzolamide], in the data set “physchem”, the solubility came to 55.6 mg/mL (≈ 145 mM).

`O=C(CCCN1CCC(O)(c2ccc(Cl)cc2)CC1)c1ccc(F)cc1` [Haloperidol, 4-[4-(p-chlorophenyl)-4-hydroxypiperidino]-4′-fluorobutyrophenone]: the solubility in the data set “physchem” was determined as 8.3 mg/mL (≈ 22.1 mM). In addition, in data set [1], the solubility in water was 1.4 mg/100 ml. For the same compound, the “solubility in 0.1 N hydrochloric acid” value in data set [1] (with heating) was 3 mg/mL (≈ 7.98 mM).

Regarding `NC[C@H]1O[C@H](O[C@H]2[C@H](O)[C@@H](O[C@H]3O[C@H](CO)[C@@H](O)[C@H](N)[C@H]3O)[C@H](N)C[C@@H]2N)[C@H](N)C[C@@H]1O` [Tobramycin], the “Solubility in water (descriptive)” value in data set [1] is given as “Soluble”. Also, the solubility in data set [2] came to 3 mg/mL (≈ 6.42 mM).

Consider `CCOC1O[C@@H]2O[C@@]3(C)CC[C@H]4[C@H](C)CC[C@@H]([C@H]1C)[C@@]24OO3` (mixture of isomers) [Arteether, 10-Ethoxydecahydro-3,6,9-trimethyl-3,12-epoxy-12H-pyrano[4,3-j]-1,2-benzodioxepin], for which the “Solubility in water (descriptive)” value in data set [1] was “quite water insoluble”. In addition, the “Solubility in Diethylene Glycol Monoethyl Ether” value in data set [2] stood at 80 mg/mL (≈ 256 mM).

Turning to `CC(=O)O[C@@]12CO[C@@H]1C[C@H](O)[C@@]1(C)C(=O)[C@H](O)C3=C(C)[C@@H](OC(=O)[C@H](O)[C@@H](NC(=O)OC(C)(C)C)c4ccccc4)C[C@@](O)([C@@H](OC(=O)c4ccccc4)[C@H]21)C3(C)C` [Docetaxel, 1,7β,10β-trihydroxy-9-oxo-5β,20-epoxytax-11-ene-2α,4,13α-triyl 4-acetate 2-benzoate 13-{(2R,3S)-3-[(tert-butoxycarbonyl)amino]-2-hydroxy-3-phenylpropanoate}], the “Solubility in water (descriptive)” value in data set [1] is on record as “practically insoluble”. In addition, the solubility in data set [2] came to 55 mg/mL (≈ 68.1 mM).

Take `COc1ccnc(C[S+]([O-])c2nc3ccc(OC(F)F)cc3[nH]2)c1OC` (stereo not shown) [Pantoprazole]: in data set [2], the “Solubility in Diethylene Glycol Monoethyl Ether” value was determined as 80 mg/mL (≈ 209 mM).

On to `Cc1ccc(-c2cc(C(F)(F)F)nn2-c2ccc(S(N)(=O)=O)cc2)cc1` [Celecoxib], for which, in data set [1], the “solubility in DMSO” value is listed as 200 mg/mL (≈ 524 mM), the solubility in ethanol is on record as 100 mg/mL (≈ 262 mM) and the “Solubility in water (descriptive)” value is “very poorly soluble”. Further, the solubility in data set [2] stood at 71.4 mg/mL (≈ 187 mM).

For `CCCCC[C@H](O)/C=C/[C@H]1[C@H](O)CC(=O)[C@@H]1CCCCCCC(=O)O` [Prostaglandin E1 (Alprostadil), (11α,13E,15S)-11,15-dihydroxy-9-oxoprost-13-en-1-oic acid], in “physchem”, the solubility is 50 mg/mL (≈ 141 mM). Further, in data set [1] (at 35° C.), the “solubility in double distilled water” value is given as 8000 micrograms per 100 milliliter.

`C[C@]12CC[C@@H]3c4ccc(O)cc4C[C@@H](CCCCCCCCC[S+]([O-])CCCC(F)(F)C(F)(F)F)[C@H]3[C@@H]1CC[C@@H]2O` (stereo partly drawn) [Fulvestrant, 7-alpha-[9-(4,4,5,5,5-pentafluoropentylsulphinyl)nonyl]estra-1,3,5-(10)-triene-3,17beta-diol]: in data set [1], the “Solubility in water (descriptive)” value was “practically insoluble”. Moreover, in data set [2], the solubility was 58.8 mg/mL (≈ 96.9 mM).

On to `C[C@@H](c1ncncc1F)[C@](O)(Cn1cncn1)c1ccc(F)cc1F` [Voricanozole, (2R,3S)-2-(2,4-difluorophenyl)-3-(5-fluoropyrimidin-4-yl)-1-(1H-1,2,4-triazol-1-yl)butan-2-ol], for which the Viscosity in data set [3] turned out to be 2.977 cps.

Take `CN(C/C=C/C#CC(C)(C)C)Cc1cccc2ccccc12` [Terbinafine, [(2E)-6,6-dimethylhept-2-en-4-yn-1-yl](methyl)(naphthalen-1-ylmethyl)amine]: the “Solubility in water (descriptive)” value in data set [1] is reported as “slightly soluble”. In addition, in data set [2], the solubility was found to be 16.7 mg/mL (≈ 57.2 mM).

Take `CCCCCCC(=O)O[C@H]1CC[C@H]2C3CCC4=CC(=O)CCC4(C)[C@H]3CCC12C` (stereo partly shown) [Testosterone Enanthate, Testosterone enanthate]: in the data set “physchem”, the solubility worked out at 55.5 mg/mL (≈ 139 mM). The “Solubility in water (descriptive)” value in data set [1] is on record as “insoluble”.

Regarding `C[C@H]1[C@H](OC(=O)CCC(=O)[O-])O[C@@H]2O[C@@]3(C)CC[C@H]4[C@H](C)CC[C@@H]1[C@@]24OO3.[Na+]` [sodium Artesunate], in data set [1], the “Solubility in water (descriptive)” value was “soluble”.

In the case of `OC(Cn1cncn1)(Cn1cncn1)c1ccc(F)cc1F` [Fluconazole, 2-(2,4-difluorophenyl)-1,3-bis(1H-1,2,4-triazol-1-yl)propan-2-ol], in data set [1], the “Solubility in water (descriptive)” value was “very slightly soluble”.

In the case of `CO[C@H]1O[C@@H]2O[C@@]3(C)CC[C@H]4[C@H](C)CC[C@@H]([C@H]1C)[C@@]24OO3` [Artemether, (+)-(3-alpha,5a-beta,6-beta,8a-beta, 9-alpha,12-beta,12aR)-decahydro-10-methoxy-3,6,9-trimethyl-3,12-epoxy-12H-pyrano(4,3-j)-1,2-benzodioxepin], the “Solubility in water (descriptive)” value in data set [1] is “practically insoluble”. Besides, in data set [2], the solubility was found to be 100 mg/mL (≈ 335 mM).

Consider `CCOC(=O)C1=C(COCCN)NC(C)=C(C(=O)OC)C1c1ccccc1Cl` (racemic) [Amlodipine besylate, 3-Ethyl-5-methyl(±)-2-[(2-aminoethoxy)methyl]4-(2-chlorophenyl)-1,4-dihydro-6-methyl-3,5-pyridinedicarboxylate, mono benzene sulphonate], for which, in data set [1], the “Solubility in water (descriptive)” value is “slightly soluble”.

With `Brc1c(NC2=NCCN2)ccc2nccnc12` [Brimonidine tartarate], in data set [1] (at pH 6.5), the solubility in water is on record as 34 mg/mL (≈ 116 mM).

In turn, `CN1C(C(=O)Nc2ccccn2)=C(O)c2ccccc2S1(=O)=O` [Piroxicam, (8E)-8-[hydroxy-(pyridin-2-ylamino)methylidene]-9-methyl-10,10-dioxo-10λ6-thia-9-azabicyclo[4.4.0]deca-1,3,5-trien-7-one] came in with a Viscosity in data set [3] of 3.365 cps.

Consider `COc1ccccc1OCC(O)COC(N)=O` (stereo not shown) [Methocarbamol, 3-(2-methoxyphenoxy)-1,2-propanediol 1-carbamate], for which the “Solubility in water (descriptive)” value in data set [1] is “sparingly soluble”.

In the case of `O=C(O)COC(=O)Cc1ccccc1Nc1c(Cl)cccc1Cl` [Aceclofenac, 2-[2-[2-[(2,6-dichlorophenyl)amino]phenyl]acetyl]oxyacetic acid], the “Solubility in water (descriptive)” value in data set [1] was “practically insoluble”.

With `COc1cc([C@@H]2c3cc4c(cc3[C@@H](O[C@@H]3O[C@@H]5CO[C@@H](C)O[C@H]5[C@H](O)[C@H]3O)[C@H]3COC(=O)[C@H]23)OCO4)cc(OC)c1O` [Etoposide, 4′-demethylepipodophyllotoxin 9-[4,6-0-(R)-ethylidene-β-D-glucopyranoside]], the solubility in “physchem” amounted to 30 mg/mL (≈ 51 mM). Further, the “Solubility in water (descriptive)” value in data set [1] was “sparingly soluble”.

For the compound Rimexolone, the “Solubility in water (descriptive)” value in data set [1] is “Very slightly soluble in water; freely soluble in chloroform; soluble in ethyl acetate and in methanol”.

For the compound `CCN1CCCC1CNC(=O)c1cc(S(=O)(=O)CC)c(N)cc1OC` (stereo not shown) [Amilsulpride], the “Solubility in water (descriptive)” value in data set [1] is “Practically insoluble in water, sparingly soluble in ethanol, soluble in methanol and freely soluble in dichloromethane”. In data set [2], the solubility came to 25 mg/mL (≈ 67.7 mM).

As for `Cc1ccc(-c2ncc(Cl)cc2-c2ccc(S(C)(=O)=O)cc2)cn1` [Etoricoxib, 5-chloro-6′-methyl-3-[4-(methylsulfonyl)phenyl]-2,3′-bipyridine], in data set [1], the solubility in water result is “about 3.3 mg/L”.

In the case of `CN1CC(=O)N2[C@H](c3ccc4c(c3)OCO4)c3[nH]c4ccccc4c3C[C@@H]2C1=O` [Tadalafil], the “Solubility in water (descriptive)” value in data set [1] is “Insoluble in water and very slightly soluble in ethanol”.

Regarding `C[C@H]1O[C@@H](O[C@H]2[C@@H](O)C[C@H](OC3CC[C@@]4(C)[C@H](CC[C@@H]5[C@@H]4C[C@@H](O)[C@]4(C)[C@@H](C6=CC(=O)OC6)CC[C@]54O)C3)O[C@@H]2C)C[C@H](O)C1OC1C[C@H](O)[C@H](O)[C@@H](C)O1` (stereo partly drawn) [Digoxin, (3β, 5β,12β)-3-[(O-2,6-dideoxy-β-D-ribo-hexopyranosyl-(1→4)-O-2,6-dideoxy-β-D-ribo-hexopyranosyl-(1→4)-2,6-dideoxy-β-D-ribo-hexopyranosyl)oxy]-12,14-dihydroxy-card-20(22)-enolide], the half-life result in data set [4] is listed as “about 36 hours”.

With `CC(=O)O[C@H]1C(=O)[C@@]2(C)[C@H]([C@H](OC(=O)c3ccccc3)[C@]3(O)CC(OC(=O)[C@H](O)[C@@H](NC(=O)c4ccccc4)c4ccccc4)C(C)=C1C3(C)C)[C@]1(OC(C)=O)CO[C@@H]1C[C@@H]2O` (stereo partly drawn) [Paclitaxel, (2α,4α,5β,7β,10β,13α)-4,10-bis(acetyloxy)-13-{[(2R,3S)-3-(benzoylamino)-2-hydroxy-3-phenylpropanoyl]oxy}-1,7-dihydroxy-9-oxo-5,20-epoxytax-11-en-2-yl benzoate], in “physchem”, the solubility turned out to be 23.8 mg/mL (≈ 27.9 mM). Moreover, in data set [1], the “Solubility in water (descriptive)” value is “insoluble”.

In the case of `C=CC[C@]1(O)CC[C@H]2[C@@H]3CCC4=CCCC[C@@H]4[C@H]3CC[C@@]21C` [Allyoestrenol, (17β)-17-(prop-2-en-1-yl)estr-4-en-17-ol], in data set [1], the “Solubility in water (descriptive)” value is on record as “practically insoluble”.
